Laboratory results published in publication PMC7933434, “Entropy-driven binding of gut bacterial β-glucuronidase inhibitors ameliorates irinotecan-induced toxicity” (Communications Biology, 2021).
Values joined by “and” are separate entries in the source; they are usually repeats but may differ in a detail not shown here. Equal entries are not always repeated. Where two headings read alike, the source gives them in different places.

Experiments:
[1] = biological target: EcGUS (Escherichia coli GUS) (Escherichia coli, UniProt P05804); assay: biochemical
[2] = biological target: LgGUS (Lactobacillus gasseri GUS) (Lactobacillus gasseri, UniProt Q9AHJ8); assay: GUS inhibition assay, hydrolysis of 4-methylumbelliferyl-β-glucuronide, LgGUS; type: biochemical; conditions: LgGUS; 50 mM sodium acetate pH 4.5, 37 °C
[3] = biological target: BdGUS (Bifidobacterium dentium GUS) (Bifidobacterium dentium, UniProt D2Q7B1); assay: biochemical; design: GUS activity (hydrolysis rate of MUG) / 1/v: unit not given here
HsGUS (human GUS) = biological target: T1, HsGUS (human GUS) (Homo sapiens, UniProt P08236); assay: GUS inhibition assay, hydrolysis of 4-methylumbelliferyl-β-glucuronide, HsGUS; type: biochemical; design: GUS activity (hydrolysis rate of MUG): unit not given here; conditions: for Ki: HsGUS
T1 construct: HsGUS was prepared as described[37]; made in house
T1 sequence (P08236 23-651): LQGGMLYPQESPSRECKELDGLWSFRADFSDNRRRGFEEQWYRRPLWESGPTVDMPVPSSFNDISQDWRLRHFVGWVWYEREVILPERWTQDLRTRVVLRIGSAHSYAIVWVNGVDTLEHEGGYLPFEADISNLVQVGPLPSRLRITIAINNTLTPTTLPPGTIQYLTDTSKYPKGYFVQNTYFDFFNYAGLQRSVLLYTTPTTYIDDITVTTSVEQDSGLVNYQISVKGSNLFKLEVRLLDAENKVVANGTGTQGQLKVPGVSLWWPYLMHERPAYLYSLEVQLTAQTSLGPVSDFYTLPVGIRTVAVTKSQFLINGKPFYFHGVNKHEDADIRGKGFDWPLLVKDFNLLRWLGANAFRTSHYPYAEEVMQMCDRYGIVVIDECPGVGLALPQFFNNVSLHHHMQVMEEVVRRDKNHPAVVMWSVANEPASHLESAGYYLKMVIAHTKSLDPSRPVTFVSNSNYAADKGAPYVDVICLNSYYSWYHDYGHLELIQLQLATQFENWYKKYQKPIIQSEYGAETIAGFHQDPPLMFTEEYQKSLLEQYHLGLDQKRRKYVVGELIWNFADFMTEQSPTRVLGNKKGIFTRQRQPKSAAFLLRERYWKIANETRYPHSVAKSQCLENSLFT

[4] = [Inhibitor 1] = 6.25 nM, [MUG] 0.375 mM
[5] = [Inhibitor 1] = 6.25 nM, [MUG] 0.75 mM
[6] = [Inhibitor 1] = 6.25 nM, [MUG] 1.5 mM
[7] = [Inhibitor 1] = 6.25 nM, [MUG] 3 mM
[8] = [Inhibitor 1] = 12.5 nM, [MUG] 0.375 mM
[9] = [Inhibitor 1] = 12.5 nM, [MUG] 0.75 mM
[10] = [Inhibitor 1] = 12.5 nM, [MUG] 1.5 mM
[11] = [Inhibitor 1] = 12.5 nM, [MUG] 3 mM
[12] = [Inhibitor 1] = 25 nM, [MUG] 0.375 mM
[13] = [Inhibitor 1] = 25 nM, [MUG] 0.75 mM
[14] = [Inhibitor 1] = 25 nM, [MUG] 1.5 mM
[15] = [Inhibitor 1] = 25 nM, [MUG] 3 mM
[16] = [Inhibitor1] = 50 nM, [MUG] 0.375 mM
[17] = [Inhibitor1] = 50 nM, [MUG] 0.75 mM
[18] = [Inhibitor1] = 50 nM, [MUG] 1.5 mM
[19] = [Inhibitor1] = 50 nM, [MUG] 3 mM

Sequence of BdGUS (Bifidobacterium dentium GUS) (D2Q7B1 1-668): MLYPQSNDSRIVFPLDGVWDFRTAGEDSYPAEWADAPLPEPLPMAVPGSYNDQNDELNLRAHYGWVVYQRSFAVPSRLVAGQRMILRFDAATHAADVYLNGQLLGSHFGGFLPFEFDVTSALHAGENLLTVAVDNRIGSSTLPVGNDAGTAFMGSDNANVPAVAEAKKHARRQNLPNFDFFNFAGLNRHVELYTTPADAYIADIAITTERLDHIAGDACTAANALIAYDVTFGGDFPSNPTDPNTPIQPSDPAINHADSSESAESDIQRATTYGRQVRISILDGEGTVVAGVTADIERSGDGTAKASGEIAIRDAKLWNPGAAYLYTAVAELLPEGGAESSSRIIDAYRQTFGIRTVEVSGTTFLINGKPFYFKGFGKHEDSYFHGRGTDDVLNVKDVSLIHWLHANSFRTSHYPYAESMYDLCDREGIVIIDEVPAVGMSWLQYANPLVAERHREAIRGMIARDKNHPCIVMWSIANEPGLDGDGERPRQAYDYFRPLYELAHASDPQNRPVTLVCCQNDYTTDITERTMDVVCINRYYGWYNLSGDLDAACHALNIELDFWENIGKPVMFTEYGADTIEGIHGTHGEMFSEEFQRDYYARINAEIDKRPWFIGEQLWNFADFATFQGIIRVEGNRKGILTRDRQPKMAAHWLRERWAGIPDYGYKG
Sequence of EcGUS (Escherichia coli GUS) (P05804 whole entry): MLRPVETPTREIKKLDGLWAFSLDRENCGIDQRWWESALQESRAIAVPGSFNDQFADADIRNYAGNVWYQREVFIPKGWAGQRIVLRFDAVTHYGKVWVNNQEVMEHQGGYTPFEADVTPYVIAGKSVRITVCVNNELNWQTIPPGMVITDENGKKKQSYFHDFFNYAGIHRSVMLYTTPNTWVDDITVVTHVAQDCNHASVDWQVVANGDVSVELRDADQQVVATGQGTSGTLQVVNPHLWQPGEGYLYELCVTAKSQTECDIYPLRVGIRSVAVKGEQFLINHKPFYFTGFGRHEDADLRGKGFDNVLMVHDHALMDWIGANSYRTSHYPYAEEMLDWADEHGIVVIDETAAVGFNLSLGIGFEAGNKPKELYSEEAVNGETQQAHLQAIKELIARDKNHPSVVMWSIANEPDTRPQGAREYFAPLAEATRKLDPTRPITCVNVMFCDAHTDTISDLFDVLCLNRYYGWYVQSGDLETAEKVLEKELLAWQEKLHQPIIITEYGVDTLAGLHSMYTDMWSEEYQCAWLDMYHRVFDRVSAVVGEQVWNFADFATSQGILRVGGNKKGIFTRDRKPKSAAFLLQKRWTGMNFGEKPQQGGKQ
Sequence of LgGUS (Lactobacillus gasseri GUS) (Q9AHJ8 1-598): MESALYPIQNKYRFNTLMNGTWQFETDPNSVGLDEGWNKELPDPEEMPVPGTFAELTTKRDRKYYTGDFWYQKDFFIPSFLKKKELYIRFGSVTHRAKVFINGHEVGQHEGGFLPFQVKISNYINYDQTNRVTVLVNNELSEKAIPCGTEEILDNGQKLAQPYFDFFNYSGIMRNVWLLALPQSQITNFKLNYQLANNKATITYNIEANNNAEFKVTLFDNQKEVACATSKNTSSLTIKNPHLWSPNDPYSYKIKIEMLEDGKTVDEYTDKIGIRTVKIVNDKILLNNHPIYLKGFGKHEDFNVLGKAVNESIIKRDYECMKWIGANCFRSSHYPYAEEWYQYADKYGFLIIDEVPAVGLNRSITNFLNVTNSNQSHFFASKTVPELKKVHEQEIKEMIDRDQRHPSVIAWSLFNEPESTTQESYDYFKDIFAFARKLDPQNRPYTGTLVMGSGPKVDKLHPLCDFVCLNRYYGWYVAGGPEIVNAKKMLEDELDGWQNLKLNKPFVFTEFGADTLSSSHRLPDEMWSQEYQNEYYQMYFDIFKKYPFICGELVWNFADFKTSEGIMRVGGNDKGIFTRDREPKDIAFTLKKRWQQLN

SMILES: O=C(O)[C@H]1CNC[C@@H](O)[C@@H]1O [Inhibitor 1, Uronic isofagomine]
- Ki [1]: 0.016 µM
- Ki ([1]; 50 mM HEPES pH 7.5, 37 °C): 0.016 ± 0.002 µM
- Ki ([1]; source data of Table 1, from plot of apparent Km against [inhibitor] (μM)): 0.0155 µM
- Ki [2]: 110 ± 33 nM
- Ki ([3]; BdGUS): 7.4 nM
- 1/v [3, 4]: 0.8126 and 0.846 and 0.7526
- GUS activity (hydrolysis rate of MUG) [3, 4]: 0.2748 and 0.264 and 0.2967
- 1/v [3, 5]: 0.5186 and 0.5024 and 0.468
- GUS activity (hydrolysis rate of MUG) [3, 5]: 0.4306 and 0.4444 and 0.4771
- 1/v [3, 6]: 0.3591 and 0.3484 and 0.3239
- GUS activity (hydrolysis rate of MUG) [3, 6]: 0.6217 and 0.6409 and 0.6893
- 1/v [3, 7]: 0.2793 and 0.2899 and 0.2702
- GUS activity (hydrolysis rate of MUG) [3, 7]: 0.7996 and 0.7703 and 0.8263
- 1/v [3, 8]: 1.155 and 1.089 and 1.043
- GUS activity (hydrolysis rate of MUG) [3, 8]: 0.1934 and 0.2051 and 0.2141
- 1/v [3, 9]: 0.6535 and 0.6591 and 0.6116
- GUS activity (hydrolysis rate of MUG) [3, 9]: 0.3417 and 0.3388 and 0.3651
- 1/v [3, 10]: 0.4306 and 0.4268 and 0.4023
- GUS activity (hydrolysis rate of MUG) [3, 10]: 0.5186 and 0.5232 and 0.555
- 1/v [3, 11]: 0.3354 and 0.3372 and 0.306
- GUS activity (hydrolysis rate of MUG) [3, 11]: 0.6657 and 0.6621 and 0.7298
- 1/v [3, 12]: 1.814 and 1.753 and 1.625
- GUS activity (hydrolysis rate of MUG) [3, 12]: 0.1231 and 0.1273 and 0.1374
- 1/v [3, 13]: 0.8901 and 1.007 and 0.9854
- GUS activity (hydrolysis rate of MUG) [3, 13]: 0.2509 and 0.2218 and 0.2266
- 1/v [3, 14]: 0.5908 and 0.5953 and 0.5748
- GUS activity (hydrolysis rate of MUG) [3, 14]: 0.3779 and 0.3751 and 0.3885
- 1/v [3, 15]: 0.423 and 0.431 and 0.4024
- GUS activity (hydrolysis rate of MUG) [3, 15]: 0.5279 and 0.5181 and 0.5549
- 1/v [3, 16]: 3.2999 and 3.135 and 3.11
- GUS activity (hydrolysis rate of MUG) [3, 16]: 0.06767 and 0.07122 and 0.07181
- 1/v [3, 17]: 1.905 and 1.744 and 1.761
- GUS activity (hydrolysis rate of MUG) [3, 17]: 0.1172 and 0.128 and 0.1268
- 1/v [3, 18]: 0.9882 and 1.034 and 0.9748
- GUS activity (hydrolysis rate of MUG) [3, 18]: 0.226 and 0.216 and 0.2291
- 1/v [3, 19]: 0.6379 and 0.6438 and 0.6305
- GUS activity (hydrolysis rate of MUG) [3, 19]: 0.35 and 0.3468 and 0.3542
- Ki (HsGUS (human GUS)): 180 nM
- Ki (HsGUS (human GUS); 50 mM sodium acetate pH 4.5, 37 °C): 180 ± 2 nM
- GUS activity (hydrolysis rate of MUG) (HsGUS (human GUS); [Inhibitor 1] =6.25 nM, [MUG] 0.1 mM): 1052.77 and 919.367
- GUS activity (hydrolysis rate of MUG) (HsGUS (human GUS); [Inhibitor 1] =6.25 nM, [MUG] 0.2 mM): 1682.62 and 1656.5
- GUS activity (hydrolysis rate of MUG) (HsGUS (human GUS); [Inhibitor 1] =6.25 nM, [MUG] 0.4 mM): 2736.45 and 2863.61
- GUS activity (hydrolysis rate of MUG) (HsGUS (human GUS); [Inhibitor 1] =6.25 nM, [MUG] 0.6 mM): 3626.7 and 3614.16
- GUS activity (hydrolysis rate of MUG) (HsGUS (human GUS); [Inhibitor 1] =6.25 nM, [MUG] 0.8 mM): 4294.49 and 4051.74
- GUS activity (hydrolysis rate of MUG) (HsGUS (human GUS); [Inhibitor 1] =6.25 nM, [MUG] 1.2 mM): 5041.75 and 5285.84
- GUS activity (hydrolysis rate of MUG) (HsGUS (human GUS); [Inhibitor 1] =6.25 nM, [MUG] 1.6 mM): 5716.1 and 5569.72
- GUS activity (hydrolysis rate of MUG) (HsGUS (human GUS); [Inhibitor 1] =6.25 nM, [MUG] 2 mM): 6253.7 and 6084.56
- GUS activity (hydrolysis rate of MUG) (HsGUS (human GUS); [Inhibitor 1] =12.5 nM, [MUG] 0.1 mM): 964.973 and 946.536
- GUS activity (hydrolysis rate of MUG) (HsGUS (human GUS); [Inhibitor 1] =12.5 nM, [MUG] 0.2 mM): 1634.13 and 1650.2
